Test results from patent US6429287B1, “Isolated molecules which complex with HLA-Cw*16 molecules, and uses thereof” (Ludwig Institute for Cancer Research, priority 1996, dated 2002).
Ends that are not written are not given here.

Tests used:
HLA-Cw*1601 = HLA-Cw*1601 (Homo sapiens, UniProt P10321, /M331V/P208H/P217L/Q277E/Q291P/R121W/S123Y/S297R/S48A/T329A/T363A/V319A); conditions: disclosed in earlier applications Ser. No. 08/79,110 and 08/196,630; cited from earlier work
[1] = tested on: HLA-Cw*1601 positive lymphoblastoid cell line, i.e., LB678-EBV; assay: 51Cr release assay: peptide-stimulated lysis by CTLs; type: cell-based, human; conditions: for ability of the peptide to stimulate lysis by CTLs: 51Cr labelled LB678-EBV target cells, peptide 15 minutes at room temperature, CTLs added, 51Cr release after four hours at 37° C.
Procedure: Based upon this hypothesis, a series of peptides were constructed, and lyophilized prior to testing. The lyophilized peptides were dissolved in 1 volume of DMSO, then 9 volumes of H2O, plus 10 mM of acetic acid. The thus diluted peptides were stored at −20° C.
The ability of the peptides to stimulate lysis by CTLs was tested via the ^51Cr release method of Boon et al., J. Exp. Med. 152: 1184-1193 (1980). Specifically, an HLA-Cw*1601 positive lymphoblastoid cell line, i.e., LB678-EBV was ^51Cr labelled for one hour at 37° C., and washed extensively. Then 1000 of these target cells were incubated in 96 well microplates, in the presence of various concentrations of peptide, for 15 minutes, at room temperature. CTLs were then added, and ^51Cr release was measured after four hours, at 37° C.

| Substance | ability of the peptide to stimulate lysis by CTLs [1] | also measured |
| --- | --- | --- |
| AARAVFLAL [SEQ ID NO: 1, preferred BAGE-derived nonapeptide of earlier applications] |  | complexes with HLA-Cw*1601 and stimulates CTL 82/82 (HLA-Cw*1601): stimulating the cell line CTL 82/82 |
| KISGGPRISYPL [SEQ ID NO: 5, corresponds to amino acids 126-137 of MAGE-6] | Lysis first occurred |  |
| amino acids 1-9 of SEQ ID NO: 5: peptide consisting of amino acids 1-9 of SEQ ID NO: 5 (KISGGPRIS) | neither one stimulated lysis |  |
| amino acids 2-10 of SEQ ID NO: 5: nonamer consisting of amino acids 2-10 of SEQ ID NO: 5 (ISGGPRISY) |  | EC50 ([1]; 51Cr release, LB678-EBV target cells, CTLs, four hours at 37° C., FIG. 3, read-out: peptide concentration achieving half maximal lysis): 0.03 µM |
| amino acids 3-10 of SEQ ID NO: 5: peptide consisting of amino acids 3-10 of SEQ ID NO: 5 (SGGPRISY) | neither one stimulated lysis |  |
